The values that follow come from patent US8183293B2, “Phenyl acetic acid derivatives” (Amgen Inc., priority 2007, dated 2012).

One assay has as its target T1, human CRTH2 (Homo sapiens, UniProt Q9Y5Y4).
T1 construct: Full-length human CRTH2 cDNA was generated by polymerase chain reaction (PCR); expressed in transfected cells; host or cells: 293 cells stably transfected with pHLT124 (pCDNA3.1(+)), named 293(124)
T1 sequence (Q9Y5Y4 1-395): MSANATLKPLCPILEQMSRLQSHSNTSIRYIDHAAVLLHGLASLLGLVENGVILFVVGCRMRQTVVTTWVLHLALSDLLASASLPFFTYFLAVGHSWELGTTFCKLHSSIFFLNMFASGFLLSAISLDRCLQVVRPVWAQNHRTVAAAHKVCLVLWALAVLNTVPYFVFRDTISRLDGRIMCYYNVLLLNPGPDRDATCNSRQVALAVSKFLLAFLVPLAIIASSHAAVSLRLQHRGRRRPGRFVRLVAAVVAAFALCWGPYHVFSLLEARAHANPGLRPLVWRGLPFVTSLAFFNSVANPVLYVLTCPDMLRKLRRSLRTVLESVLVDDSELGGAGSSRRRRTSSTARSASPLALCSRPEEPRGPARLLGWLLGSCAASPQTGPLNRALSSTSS
The experiment in a line: Human CRTH2 binding assay (3H-PGD2, 293(124) cells). The protocol:
Full-length human CRTH2 cDNA was generated by polymerase chain reaction (PCR) using human genomic DNA as template and subsequently cloned into pCDNA3.1(+) (Invitrogen), generating a CRTH2 expression plasmid pHLT124. The plasmid was transfected into 293 cells, […], using LipofectAMINE™ reagents (Gibco/BRL). G418 ([…]) was added to the culture 48 h after transfection and cells were maintained under selection for 3 weeks to ensure that all surviving cells stably expressed CRTH2. These cells are labeled as 293(124) hereafter.
^3H-PGD2 binding assay was performed using 293(124) cells. […] Each assay contained 25,000 cells, appropriate amount of test compound when necessary and a mixture of 1 nM ^3H-PGD2 (Amersham Pharmacia Biotech) and 30 nM of unlabeled PGD2 (Cayman Chemicals) in […] final volume. The cell mixture was incubated at room temperature for 2.5 h with shaking and the cells were separated from free ^3H-PGD2 and transferred onto a filter plate using a cell harvester. Radioactivity bound to the cells was measured on a liquid scintillation counter. Nonspecific binding was determined in the presence of […] of unlabeled PGD2.

The next assay has as its target T2, DP (Homo sapiens, UniProt Q13258).
T2 sequence (Q13258 1-359): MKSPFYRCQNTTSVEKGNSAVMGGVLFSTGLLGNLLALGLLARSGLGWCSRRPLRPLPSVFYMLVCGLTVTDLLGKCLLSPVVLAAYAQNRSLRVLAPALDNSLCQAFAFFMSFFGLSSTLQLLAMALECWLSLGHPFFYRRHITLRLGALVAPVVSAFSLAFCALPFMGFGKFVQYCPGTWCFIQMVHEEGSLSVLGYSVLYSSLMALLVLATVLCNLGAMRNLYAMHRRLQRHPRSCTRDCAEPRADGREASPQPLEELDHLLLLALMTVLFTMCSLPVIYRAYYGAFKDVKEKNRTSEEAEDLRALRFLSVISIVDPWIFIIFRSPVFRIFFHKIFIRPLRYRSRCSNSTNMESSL
Nature of the assay: DP activity (IC50). Type of assay: binding.

[1] abbreviates: buffer, read-out: CRTH2 IC50 (nM) Buffer.
Setting [2] is: plasma, read-out: CRTH2 IC50 (nM) Plasma.
[3] abbreviates: buffer, read-out: DP IC50 (nM) Buffer.
The mark [4] stands for this setting: plasma, read-out: DP IC50 (nM) Plasma.
Setting [5] is: whole blood, read-out: CRTH2 IC50 (nM) whole blood.
Setting [6] is: whole blood, read-out: DP IC50 (nM) whole blood.

Molecules are shown by their SMILES. Read-outs that look alike come from different tables or passages of the source. Bounds are passed on as bounds.

As for `CC(C)(C)NC(=O)c1ccc(Oc2cc(F)c(CC(=O)O)cc2Cl)c(NS(=O)(=O)c2ccc(OC(F)(F)C(F)F)cc2Cl)c1`, the IC50 – broadly, the concentration that gives 50% inhibition – was 4.6 nM at human CRTH2 (setting [1]), 10.9 nM at human CRTH2 (setting [2]), 5.9 nM at DP (setting [3]) and 52.5 nM at DP (setting [4]).

For `Cc1ccc(S(=O)(=O)Nc2cc(C(=O)NC(C)(C)C)ccc2Oc2cc(F)c(CC(=O)O)cc2Cl)c(Cl)c1`, the half-maximal inhibitory concentration (IC50) at human CRTH2 (setting [1]) came out at 3.3 nM; on human CRTH2 (setting [2]), 6.1 nM; at DP (setting [3]) it was 5.6 nM; on DP (setting [4]) it was 17.2 nM.

In the case of `CC(C)(C)NC(=O)c1ccc(Oc2cc(F)c(CC(=O)O)cc2Cl)c(NS(=O)(=O)c2ccc(C(F)(F)F)cc2Cl)c1`, the IC50 at human CRTH2 (setting [1]) stood at 3.5 nM; at human CRTH2 (setting [2]), 8.1 nM; at human CRTH2 (setting [5]) it was 1.1 nM; at DP (setting [3]), 12.6 nM; at DP (setting [4]), 43 nM; at DP (setting [6]), 26.6 nM.

On to `CC1(NC(=O)c2ccc(Oc3cc(F)c(CC(=O)O)cc3Cl)c(NS(=O)(=O)c3ccc(C4CC4)cc3Cl)c2)CCC1`, for which the IC50 at human CRTH2 (setting [1]) amounted to 3.9 nM; at human CRTH2 (setting [2]), 7.6 nM; at DP (setting [3]) it was 4.4 nM; at DP (setting [4]) it was 25.7 nM.

As for `O=C(O)Cc1cc(Cl)c(Oc2ccc(C(=O)NC3CCC3)cc2NS(=O)(=O)c2ccc(C3CC3)cc2Cl)cc1F`, the concentration for half-maximal inhibition (IC50) at human CRTH2 (setting [1]) stood at 3.3 nM; on human CRTH2 (setting [2]), 7.9 nM; at human CRTH2 (setting [5]), 0.5 nM; on DP (setting [3]) it was 4.6 nM; at DP (setting [4]), 18 nM; at DP (setting [6]), 0.6 nM.

Consider `CC(C)(C)NC(=O)c1ccc(Oc2cc(F)c(CC(=O)O)cc2Cl)c(NS(=O)(=O)c2ccc(OC(F)(F)F)cc2Cl)c1`, for which the half-maximal inhibitory concentration (IC50) amounted to 9.3 nM at human CRTH2 (setting [1]); 19.4 nM on human CRTH2 (setting [2]); 2 nM at human CRTH2 (setting [5]); 14.5 nM at DP (setting [3]); 37.8 nM on DP (setting [4]); 17.3 nM on DP (setting [6]).

For `CC1(NC(=O)c2ccc(Oc3cc(F)c(CC(=O)O)cc3Cl)c(NS(=O)(=O)c3ccc(C(F)(F)F)cc3Cl)c2)CCC1`, the IC50 on human CRTH2 (setting [1]) turned out to be 8.1 nM; on human CRTH2 (setting [2]) it was 18.4 nM; at DP (setting [3]), 15.1 nM; on DP (setting [4]) it was 41.9 nM.

Turning to `CC(C)(C)NC(=O)c1ccc(Oc2cc(F)c(CC(=O)O)cc2F)c(NS(=O)(=O)c2ccc(C3CC3)cc2Cl)c1`, the half-inhibitory concentration (IC50) on human CRTH2 (setting [1]) amounted to 3 nM; on human CRTH2 (setting [2]), 10 nM; at DP (setting [3]) it was 5 nM; on DP (setting [4]) it was 39 nM.

For the molecule `CC1(NC(=O)c2ccc(Oc3cc(F)c(CC(=O)O)cc3Cl)c(NS(=O)(=O)c3ccc(OC(F)(F)F)cc3Cl)c2)CCC1`, the concentration for half-maximal inhibition (IC50) at human CRTH2 (setting [1]) is 6.2 nM; on human CRTH2 (setting [2]), 15.7 nM; on DP (setting [3]), 10.7 nM; on DP (setting [4]), 31.9 nM.

For `Cc1ccc(S(=O)(=O)Nc2cc(C(=O)NC3(C)CCC3)ccc2Oc2cc(F)c(CC(=O)O)cc2Cl)c(Cl)c1`, the IC50 was 3.2 nM at human CRTH2 (setting [1]), 12.1 nM at human CRTH2 (setting [2]), 2.8 nM on DP (setting [3]) and 25.6 nM on DP (setting [4]).

For `CCC(C)(C)NC(=O)c1ccc(Oc2cc(F)c(CC(=O)O)cc2Cl)c(NS(=O)(=O)c2ccc(C(F)(F)F)cc2Cl)c1`, the 50% inhibitory concentration (IC50) turned out to be 10 nM on human CRTH2 (setting [1]), 35.8 nM at human CRTH2 (setting [2]), 15.6 nM at DP (setting [3]) and 51.6 nM at DP (setting [4]).

In the case of `CCC(C)(C)NC(=O)c1ccc(Oc2cc(F)c(CC(=O)O)cc2Cl)c(NS(=O)(=O)c2ccc(C)cc2Cl)c1`, the IC50 came out at 4.9 nM on human CRTH2 (setting [1]); 10.9 nM at human CRTH2 (setting [2]); 3.9 nM at DP (setting [3]); 21.8 nM at DP (setting [4]); 18.3 nM at DP (setting [6]).

For the molecule `Cc1ccc(S(=O)(=O)Nc2cc(C(=O)NC3CCC3)ccc2Oc2cc(F)c(CC(=O)O)cc2Cl)c(Cl)c1`, the concentration for half-maximal inhibition (IC50) was 1.3 nM on human CRTH2 (setting [1]), 7 nM at human CRTH2 (setting [2]), 2.2 nM on DP (setting [3]) and 22.9 nM on DP (setting [4]).

In the case of `CC(C)(C)NC(=O)c1ccc(Oc2cc(F)c(CC(=O)O)cc2Cl)c(NS(=O)(=O)c2ccc(Cl)cc2Cl)c1`, the IC50 at human CRTH2 (setting [1]) amounted to 5 nM; at human CRTH2 (setting [2]), 13 nM; at DP (setting [3]), 18 nM; on DP (setting [4]), 79 nM.

As for `CC(C)(C)NC(=O)c1ccc(Oc2cc(F)c(CC(=O)O)cc2Cl)c(NS(=O)(=O)c2ccc(C3CC3)cc2Cl)c1` [drawing 69], the IC50 came to 3 nM on human CRTH2 (setting [1]); 8 nM at human CRTH2 (setting [2]); 0.2 nM at human CRTH2 (setting [5]); 3 nM on DP (setting [3]); 26 nM at DP (setting [4]); 1 nM at DP (setting [6]).

Take `CCNC(=O)c1ccc(Oc2ccc(CC(=O)O)cc2Cl)c(NS(=O)(=O)c2ccc(Cl)cc2Cl)c1` [reference compound]: the values for the concentration for half-maximal inhibition (IC50) at human CRTH2 (setting [1]), on human CRTH2 (setting [2]) and at DP (setting [3]) were 2.2 nM, 71 nM and 12 nM, respectively.

Turning to `CCNC(=O)c1ccc(Oc2ccc(CC(=O)O)cc2Cl)c(NS(=O)(=O)c2ccc(OC)cc2)c1` [reference compound], the figures for the IC50 on human CRTH2 (setting [1]) and on human CRTH2 (setting [2]) were 2.7 nM and 16.7 nM, respectively.

Consider `CCNC(=O)c1ccc(Oc2ccc(CC(=O)O)cc2Cl)c(NS(=O)(=O)c2ccc(C)cc2)c1` [reference compound], for which the IC50 on human CRTH2 (setting [1]) came to 2.3 nM; on human CRTH2 (setting [2]), 26 nM.

Turning to `CCNC(=O)c1ccc(Oc2ccc(CC(=O)O)cc2)c(NS(=O)(=O)c2ccc(Cl)cc2Cl)c1` [reference compound], the half-inhibitory concentration (IC50) turned out to be 4 nM at human CRTH2 (setting [1]), 92 nM on human CRTH2 (setting [2]), 120 nM at DP (setting [3]) and 8420 nM on DP (setting [4]).

In the case of `CCCCNC(=O)c1ccc(Oc2ccc(CC(=O)O)cc2Cl)c(NS(=O)(=O)c2ccc(Cl)cc2)c1` [reference compound], the half-maximal inhibitory concentration (IC50) at DP (setting [3]) was found to be 9.1 nM; at DP (setting [4]), 100 nM.

For the molecule `CCNC(=O)c1ccc(Oc2cc(Br)c(CC(=O)O)cc2OC)c(NS(=O)(=O)c2ccc(F)cc2F)c1` [reference compound], the IC50 on human CRTH2 (setting [1]) was 1.6 nM; on human CRTH2 (setting [2]), 25.7 nM; at DP (setting [3]) it was greater than 1e+06 nM.
